# Reference: patent US8952043B2, “Benzoxepin PI3K inhibitor compounds and methods of use” (Genentech, Inc., priority 2009, dated 2015)
# Key:
# p110 alpha PI3K = biological target: T1, p110 alpha PI3K (Homo sapiens, UniProt P42336); assay: p110α (alpha) PI3K binding assay (fluorescence polarization); conditions: read-out: IC50 (inhibition of PI3K alpha, p110 alpha)
# T1 construct: purchased Upstate Cell Signaling Solutions, Charlottesville, Va
# Description: Determination of the PI3 kinase activity of a Formula I compound is possible by a number of direct and indirect detection methods. Certain exemplary compounds described herein were assayed for their p110α (alpha), and other isoform, PI3K binding activity (Example 601) and in vitro activity against tumor cells (Example 602).
# Binding Assays: Initial polarization experiments were performed on an Analyst HT 96-384 (Molecular Devices Corp, Sunnyvale, Calif.). […] After an incubation time of 30 minutes at room temperature, the reactions were stopped by the addition of GRP-1 and PIP3-TAMRA probe (Echelon-Inc., Salt Lake City, Utah.) 100 nM and 5 nM final concentrations respectively. Read with standard cut-off filters for the rhodamine fluorophore (λex=530 nm; λem=590 nm) in 384-well black low volume Proxiplates (PerkinElmer, Wellesley, Mass.) Fluorescence polarization values were plotted as a function of the protein concentration, and the EC50 values were obtained by fitting the data to a 4-parameter equation using KaleidaGraph software (Synergy software, Reading, Pa.). This experiment also establishes the appropriate protein concentration to use in subsequent competition experiments with inhibitors.
# Inhibitor IC50 values were determined by addition of the 0.04 mg/mL p110 alpha PI3K (final concentration) combined with PIP2 ([…] final concentration) to wells containing 1:3 serial dilutions of the antagonists in a final concentration of […] ATP (Cell Signaling Technology, Inc., Danvers, Mass.) in the polarization buffer. After an incubation time of 30 minutes at room temperature, the reactions were stopped by the addition of GRP-1 and PIP3-TAMRA probe (Echelon-Inc., Salt Lake City, Utah.) 100 nM and 5 nM final concentrations respectively. Read with standard cut-off filters for the rhodamine fluorophore (λex=530 nm; λem=590 nm) in 384-well black low volume proxi plates (PerkinElmer, Wellesley, Mass.) Fluorescence polarization values were plotted as a function of the antagonist concentration, and the IC50 values were obtained by fitting the data to a 4-parameter equation in Assay Explorer software (MDL, San Ramon, Calif.).
# Alternatively, inhibition of PI3K was determined in a radiometric assay using purified, recombinant enzyme and ATP at a concentration of 1 uM. The Formula I compound was serially diluted in 100% DMSO. The kinase reaction was incubated for 1 hr at room temperature, and the reaction was terminated by the addition of PBS. IC50 values were subsequently determined using sigmoidal dose-response curve fit (variable slope).
# EVSA-T = assay: CellTiter-Glo cell proliferation assay, EVSA-T; format: cell-based; conditions: Homo sapiens, Breast, mutation status PTEN
# Description: (§1) The in vitro potency of Formula I exemplary compounds was measured by the cell proliferation assay, CellTiter-Glo® Luminescent Cell Viability Assay, commercially available from Promega Corp., Madison, Wis. (Example 602). This homogeneous assay method is based on the recombinant expression of Coleoptera luciferase (U.S. Pat. Nos. 5,583,024; 5,674,713; 5,700,670) and determines the number of viable cells in culture based on quantitation of the ATP present, an indicator of metabolically active cells (Crouch et al (1993) J. Immunol. Meth. 160:81-88; U.S. Pat. No. 6,602,677). The CellTiter-Glo® Assay was conducted in 96 or 384 well format, making it amenable to automated high-throughput screening (HTS) (Cree et al (1995) AntiCancer Drugs 6:398-404). The homogeneous assay procedure involves adding the single reagent (CellTiter-Glo® Reagent) directly to cells cultured in serum-supplemented medium. Cell washing, removal of medium and multiple pipetting steps are not required. The system detects as few as 15 cells/well in a 384-well format in 10 minutes after adding reagent and mixing.
# (§2) Efficacy of Formula I compounds were measured by a cell proliferation assay employing the following protocol (Promega Corp. Technical Bulletin TB288; Mendoza et al (2002) Cancer Res. 62:5485-5488):
# (§3) 1. An aliquot of 100 μl of cell culture containing about 10^4 cells (PC3, Detroit562, or MDAMB361.1) in medium was deposited in each well of a 384-well, opaque-walled plate.
# (§4) 2. Control wells were prepared containing medium and without cells.
# (§5) 3. The compound was added to the experimental wells and incubated for 3-5 days.
# (§6) 4. The plates were equilibrated to room temperature for approximately 30 minutes.
# (§7) 5. A volume of CellTiter-Glo Reagent equal to the volume of cell culture medium present in each well was added.
# (§8) 6. The contents were mixed for 2 minutes on an orbital shaker to induce cell lysis.
# (§9) 7. The plate was incubated at room temperature for 10 minutes to stabilize the luminescence signal.
# (§10) 8. Luminescence was recorded and reported in graphs as RLU=relative luminescence units.
# (§11) Alternatively, cells were seeded at optimal density in a 96 well plate and incubated for 4 days in the presence of test compound. Alamar Blue™ was subsequently added to the assay medium, and cells were incubated for 6 hr before reading at 544 nm excitation, 590 nm emission. EC50 values were calculated using a sigmoidal dose response curve fit. […] It is commonly used as a measure of drug potency.
# (§12) The anti-proliferative effects of Formula I exemplary compounds were measured by the CellTiter-Glo® Assay against various tumor cell lines, including the following: […]
# MDA-MB-361.1 = assay: CellTiter-Glo cell proliferation assay, MDA-MB-361.1; format: cell-based; conditions: Breast, mutation status PI3K
# Description: as §1, §2, §3, §4, §5, §6, §7, §8, §9, §10, §11, §12
# AU565 = assay: CellTiter-Glo cell proliferation assay, AU565; format: cell-based; conditions: Homo sapiens, Breast, mutation status WT
# Description: as §1, §2, §3, §4, §5, §6, §7, §8, §9, §10, §11, §12
# PC3 = assay: CellTiter-Glo cell proliferation assay, PC3; format: cell-based; conditions: Homo sapiens, PC-3, Prostate, mutation status PTEN
# Description: as §1, §2
# 1. […]
# as §9, §10
# (§13) Alternatively, cells were seeded at optimal density in a 96 well plate and incubated for 4 days in the presence of test compound. Alamar Blue™ was subsequently added to the assay medium, and cells were incubated for 6 hr before reading at 544 nm excitation, 590 nm emission. EC50 values were calculated using a sigmoidal dose response curve fit. […]
# as §12
# KPL4 = assay: CellTiter-Glo cell proliferation assay, KPL4; format: cell-based; conditions: Breast, mutation status PI3K
# Description: as §1, §2
# 1. […]
# as §9, §10, §13, §12
# HCC1954 = assay: CellTiter-Glo cell proliferation assay, HCC1954; format: cell-based; conditions: Homo sapiens, Breast, mutation status PI3K
# Description: as §1, §2
# 1. […]
# as §9, §10, §13, §12
# H2122 = assay: CellTiter-Glo cell proliferation assay, H2122; format: cell-based; conditions: Homo sapiens, NCI-H2122, Lung(NSCLC), mutation status K-RAS
# Description: as §1, §2
# 1. […]
# as §9, §10, §13, §12
# T47D = assay: CellTiter-Glo cell proliferation assay, T47D; format: cell-based; conditions: Homo sapiens, Breast, mutation status PI3K
# Description: as §1, §2
# 1. […]
# as §9, §10, §13, §12
# KM12 = assay: CellTiter-Glo cell proliferation assay, KM12; format: cell-based; conditions: Homo sapiens, Colon, mutation status PTEN
# Description: (§14) The in vitro potency of Formula I exemplary compounds was measured by the cell proliferation assay, CellTiter-Glo® Luminescent Cell Viability Assay, commercially available from Promega Corp., Madison, Wis. (Example 602). This homogeneous assay method is based on the recombinant expression of Coleoptera luciferase (U.S. Pat. Nos. 5,583,024; 5,674,713; 5,700,670) and determines the number of viable cells in culture based on quantitation of the ATP present, an indicator of metabolically active cells (Crouch et al (1993) J. Immunol. Meth. 160:81-88; U.S. Pat. No. 6,602,677). […]
# (§15) Efficacy of Formula I compounds were measured by a cell proliferation assay employing the following protocol (Promega Corp. Technical Bulletin TB288; Mendoza et al (2002) Cancer Res. 62:5485-5488): […]
# as §9, §10, §13
# BT474 = assay: CellTiter-Glo cell proliferation assay, BT474; format: cell-based; conditions: Homo sapiens, BT-474, Breast, mutation status PI3K(amped)
# Description: as §1, §2
# 1. […]
# as §9, §10, §13, §12
# U87MG = assay: CellTiter-Glo cell proliferation assay, U87MG; format: cell-based; conditions: Homo sapiens, U-87 MG, Glioma, mutation status PTEN
# Description: as §14, §15, §9, §10, §13
# MFM223 = assay: CellTiter-Glo cell proliferation assay, MFM223; format: cell-based; conditions: Homo sapiens, MFM-223, Breast, mutation status PI3K
# Description: as §1, §2
# 1. […]
# as §9, §10, §13, §12
# MDST8 = assay: CellTiter-Glo cell proliferation assay, MDST8; format: cell-based; conditions: Colon, mutation status PTEN
# Description: as §14, §15, §9, §10, §13
# H520 = assay: CellTiter-Glo cell proliferation assay, H520; format: cell-based; conditions: Homo sapiens, NCI-H520, Lung(NSCLC), mutation status PTEN
# Description: as §14, §15, §9, §10, §13
# T1 sequence (P42336 whole entry): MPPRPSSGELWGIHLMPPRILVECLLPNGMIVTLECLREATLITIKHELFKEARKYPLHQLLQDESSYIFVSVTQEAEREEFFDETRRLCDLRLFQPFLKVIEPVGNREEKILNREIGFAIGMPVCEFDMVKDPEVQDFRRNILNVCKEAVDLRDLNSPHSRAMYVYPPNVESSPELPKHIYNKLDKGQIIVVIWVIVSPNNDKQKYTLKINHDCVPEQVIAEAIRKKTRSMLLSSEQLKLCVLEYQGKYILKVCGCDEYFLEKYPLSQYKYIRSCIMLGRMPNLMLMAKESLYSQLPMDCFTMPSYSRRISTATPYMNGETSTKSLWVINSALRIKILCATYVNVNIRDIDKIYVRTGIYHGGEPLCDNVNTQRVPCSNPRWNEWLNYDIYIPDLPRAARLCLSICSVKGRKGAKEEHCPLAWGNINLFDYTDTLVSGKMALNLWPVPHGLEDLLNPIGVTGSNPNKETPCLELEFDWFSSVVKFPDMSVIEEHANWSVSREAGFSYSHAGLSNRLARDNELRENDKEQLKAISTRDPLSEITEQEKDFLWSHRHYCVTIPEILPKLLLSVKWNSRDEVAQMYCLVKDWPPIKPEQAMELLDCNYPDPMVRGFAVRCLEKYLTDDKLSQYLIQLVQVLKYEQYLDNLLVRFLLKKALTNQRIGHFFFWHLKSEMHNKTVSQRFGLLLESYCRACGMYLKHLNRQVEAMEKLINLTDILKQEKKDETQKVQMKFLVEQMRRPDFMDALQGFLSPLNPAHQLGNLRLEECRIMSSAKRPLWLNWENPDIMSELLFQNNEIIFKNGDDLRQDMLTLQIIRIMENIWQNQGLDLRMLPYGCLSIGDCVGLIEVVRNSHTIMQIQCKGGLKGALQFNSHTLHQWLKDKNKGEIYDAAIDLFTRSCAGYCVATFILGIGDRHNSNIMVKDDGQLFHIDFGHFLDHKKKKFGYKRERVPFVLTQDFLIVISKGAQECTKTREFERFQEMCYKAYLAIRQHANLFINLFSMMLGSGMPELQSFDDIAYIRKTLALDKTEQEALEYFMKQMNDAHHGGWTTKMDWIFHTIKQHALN
# T1 sequence (P27986 whole entry partner): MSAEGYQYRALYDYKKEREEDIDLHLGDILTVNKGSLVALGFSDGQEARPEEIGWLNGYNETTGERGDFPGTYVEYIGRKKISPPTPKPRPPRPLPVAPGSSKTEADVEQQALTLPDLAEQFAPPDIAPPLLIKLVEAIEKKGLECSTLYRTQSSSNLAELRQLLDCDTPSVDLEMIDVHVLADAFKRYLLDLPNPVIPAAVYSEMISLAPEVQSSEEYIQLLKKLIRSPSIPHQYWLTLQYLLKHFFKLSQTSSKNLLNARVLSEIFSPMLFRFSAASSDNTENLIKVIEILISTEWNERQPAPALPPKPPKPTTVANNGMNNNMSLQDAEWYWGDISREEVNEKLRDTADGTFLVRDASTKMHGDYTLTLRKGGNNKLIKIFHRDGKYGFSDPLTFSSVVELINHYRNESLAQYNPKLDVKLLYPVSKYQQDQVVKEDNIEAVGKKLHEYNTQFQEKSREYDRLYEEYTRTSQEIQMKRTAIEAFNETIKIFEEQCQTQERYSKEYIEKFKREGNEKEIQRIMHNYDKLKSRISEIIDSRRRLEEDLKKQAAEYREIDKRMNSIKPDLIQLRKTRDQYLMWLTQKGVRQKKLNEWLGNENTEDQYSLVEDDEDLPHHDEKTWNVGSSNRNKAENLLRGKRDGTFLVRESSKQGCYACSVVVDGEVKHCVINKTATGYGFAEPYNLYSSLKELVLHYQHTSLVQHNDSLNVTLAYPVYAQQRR
smiles,measurement,setting,value
"O=C(c1nc2c(s1)CCOc1cc(-c3cn[nH]c3)ccc1-2)N1CCC[C@@H]1CO [compound 101, ((R)-2-Hydroxymethyl-pyrrolidin-1-yl)-[8-(1H-pyrazol-4-yl)-4,5-dihydro-6-oxa-3-thia-1-aza-benzo[e]azulen-2-yl]-methanone]",IC50,p110 alpha PI3K,31 nM
"CC(C)N(C)C(=O)c1nc2c(s1)CCOc1cc(-c3cn[nH]c3)ccc1-2 [compound 102, 8-(1H-Pyrazol-4-yl)-4,5-dihydro-6-oxa-3-thia-1-aza-benzo[e]azulene-2-carboxylic acid isopropyl-methyl-amide]",IC50,p110 alpha PI3K,5.1 nM
"CC(C)N(CCO)C(=O)c1nc2c(s1)CCOc1cc(-c3cn[nH]c3)ccc1-2 [compound 103, 8-(1H-Pyrazol-4-yl)-4,5-dihydro-6-oxa-3-thia-1-aza-benzo[e]azulene-2-carboxylic acid (2-hydroxy-ethyl)-isopropyl-amide]",IC50,p110 alpha PI3K,1.8 nM
"O=C(NCc1ccc2c(c1)OCCc1sc(-c3ncnn3CC(F)(F)F)nc1-2)c1cn[nH]c1 [compound 106, 1H-Pyrazole-4-carboxylic acid {2-[2-(2,2,2-trifluoro-ethyl)-2H-[1,2,4]triazol-3-yl]-4,5-dihydro-6-oxa-3-thia-1-aza-benzo[e]azulen-8-ylmethyl}-amide]",IC50,p110 alpha PI3K,5.7 nM
"O=S1(=O)CCN(CCNc2ccc3c(n2)-c2sc(-c4ncnn4-c4ccc(F)cc4F)cc2CCO3)CC1 [compound 109, {2-[2-(2,4-Difluoro-phenyl)-2H-[1,2,4]triazol-3-yl]-4,5-dihydro-6-oxa-1-thia-10-aza-benzo[e]azulen-9-yl}-[2-(1,1-dioxo-1S-thiomorpholin-4-yl)-ethyl]-amine]",IC50,p110 alpha PI3K,1.3 nM
"CNC(=O)c1ccc2c(c1)OCCc1cc(-c3nc(N)nn3-c3ccc(F)cc3F)sc1-2 [compound 127, 2-(3-amino-1-(2,4-difluorophenyl)-1H-1,2,4-triazol-5-yl)-N-methyl-4,5-dihydrobenzo[b]thieno[2,3-d]oxepine-8-carboxamide]",EC50,EVSA-T,147 nM
same,EC50,MDA-MB-361.1,60 nM
same,IC50,p110 alpha PI3K,0.05 nM
same,EC50,AU565,37 nM
"CC(C)n1ncnc1-c1cc2c(s1)-c1ccc(-c3cccc(C(=O)O)c3)cc1OCC2 [compound 147, 3-(2-(1-isopropyl-1H-1,2,4-triazol-5-yl)-4,5-dihydrobenzo[b]thieno[2,3-d]oxepin-8-yl)benzoic acid]",IC50,p110 alpha PI3K,21 nM
"Nc1nc(-c2cc3c(s2)-c2ccc(C(=O)NCCO)cc2OCC3)n(-c2ccc(F)cc2F)n1 [compound 151, 2-(3-amino-1-(2,4-difluorophenyl)-1H-1,2,4-triazol-5-yl)-N-(2-hydroxyethyl)-4,5-dihydrobenzo[b]thieno[2,3-d]oxepine-8-carboxamide]",IC50,p110 alpha PI3K,0.2 nM
"CN(CCC#N)C(=O)c1nc2c(s1)CCOc1cc(-c3cn[nH]c3)ccc1-2 [compound 153, 8-(1H-Pyrazol-4-yl)-4,5-dihydro-6-oxa-3-thia-1-aza-benzo[e]azulene-2-carboxylic acid (2-cyano-ethyl)-methyl-amide]",IC50,p110 alpha PI3K,58 nM
"CC(C)n1ncnc1-c1nc2c(s1)CCOc1cc(C3CCNCC3)ccc1-2 [compound 375, 2-(2-isopropyl-2H-[1,2,4]triazol-3-yl)-8-piperidin-4-yl-4,5-dihydro-6-oxa-3-thia-1-aza-benzo[e]azulene]",EC50,EVSA-T,225 nM
same,EC50,MDA-MB-361.1,1090 nM
same,EC50,PC3,145 nM
same,EC50,KPL4,151 nM
same,EC50,HCC1954,348 nM
same,EC50,AU565,241 nM
same,EC50,H2122,1170 nM
same,EC50,T47D,145 nM
same,EC50,KM12,1750 nM
same,EC50,BT474,428 nM
same,EC50,U87MG,858 nM
same,EC50,MFM223,739 nM
same,EC50,MDST8,1740 nM
same,EC50,H520,226 nM
"CC(C)n1nc(N)nc1-c1nc2c(s1)CCOc1cc(C3CN(CCS(C)(=O)=O)C3)ccc1-2 [compound 463, 1-Isopropyl-5-{8-[1-(2-methanesulfonyl-ethyl)-azetidin-3-yl]-4,5-dihydro-6-oxa-3-thia-1-aza-benzo[e]azulen-2-yl}-1H-[1,2,4]triazol-3-ylamine]",EC50,EVSA-T,746 nM
same,EC50,MDA-MB-361.1,855 nM
same,EC50,PC3,185 nM
same,EC50,KPL4,103 nM
same,EC50,HCC1954,340 nM
same,EC50,AU565,225 nM
same,EC50,H2122,542 nM
same,EC50,T47D,185 nM
same,EC50,KM12,321 nM
same,EC50,BT474,638 nM
same,EC50,U87MG,2090 nM
same,EC50,MFM223,559 nM
same,EC50,MDST8,1720 nM
same,EC50,H520,972 nM
